Results published in the NIST ThermoML archive (doi:10.1021/je800899w).
± gives the expanded uncertainty stated by the source.

Assays:
[1] = refractive index (Na D-line) (dimensionless); details: 298.15 K; 101.33 kPa; Liquid; Standard Abbe refractometry
[2] = 298.15 K, 101.33 kPa, Liquid; for viscosity: Capillary tube (Ostwald / Ubbelohde) method; for mass density: Vibrating tube method
[3] = xn = mol fraction of the nth substance listed; details: 298.15 K, 101.3 kPa, Liquid; for viscosity: Capillary tube (Ostwald / Ubbelohde) method
[4] = refractive index (Na D-line) (dimensionless); xn = mol fraction of the nth substance listed; details: 298.15 K, 101.3 kPa, Liquid, Standard Abbe refractometry

Question: With `CCCCCCCCn1cc[n+](C)c1.O=S(=O)([N-]S(=O)(=O)C(F)(F)F)C(F)(F)F` as the molecule, how does the refractive index [1] read?
Answer: The refractive index was 1.43298 ± 0.00037.

Question: What about the viscosity [2] of the same molecule?
Answer: Its viscosity is 92.51 ± 1.4 mPa·s.

Question: And the mass density [2]?
Answer: Its mass density is 1320.59 ± 0.5 kg/m3.

Question: What does the source list for `CCCCCCCCn1cc[n+](C)c1.O=S(=O)([N-]S(=O)(=O)C(F)(F)F)C(F)(F)F` + CCO?
Answer: viscosity ([3]; x2 = 0.0959): 71.28 ± 0.88 mPa·s; viscosity ([3]; x2 = 0.1162): 67.63 ± 0.81 mPa·s; viscosity ([3]; x2 = 0.1935): 55.53 ± 0.61 mPa·s; viscosity ([3]; x2 = 0.2269): 51.54 ± 0.56 mPa·s; viscosity ([3]; x2 = 0.3304): 39.23 ± 0.44 mPa·s; viscosity ([3]; x2 = 0.4164): 29.89 ± 0.34 mPa·s; viscosity ([3]; x2 = 0.5412): 19.92 ± 0.22 mPa·s; viscosity ([3]; x2 = 0.6012): 15.86 ± 0.18 mPa·s; viscosity ([3]; x2 = 0.7033): 10.25 ± 0.11 mPa·s; viscosity ([3]; x2 = 0.8067): 5.83 ± 0.065 mPa·s; viscosity ([3]; x2 = 0.8967): 3.079 ± 0.035 mPa·s; mass density ([3]; x2 = 0.0959): 1311.29 ± 1.5 kg/m3; mass density ([3]; x2 = 0.1162): 1309.17 ± 1.5 kg/m3; mass density ([3]; x2 = 0.1935): 1300.29 ± 1.4 kg/m3; mass density ([3]; x2 = 0.2269): 1296.02 ± 1.4 kg/m3; mass density ([3]; x2 = 0.3304): 1280.78 ± 1.3 kg/m3; mass density ([3]; x2 = 0.4164): 1265.19 ± 1.2 kg/m3; mass density ([3]; x2 = 0.5412): 1235.17 ± 1.1 kg/m3; mass density ([3]; x2 = 0.6012): 1216.21 ± 1 kg/m3; mass density ([3]; x2 = 0.7033): 1173.46 ± 0.84 kg/m3; mass density ([3]; x2 = 0.8067): 1106.85 ± 0.62 kg/m3; mass density ([3]; x2 = 0.8967): 1010.5 ± 0.31 kg/m3; refractive index ([4]; x2 = 0.0959): 1.43164 ± 0.00036; refractive index ([4]; x2 = 0.1162): 1.43133 ± 0.00036; refractive index ([4]; x2 = 0.1935): 1.43016 ± 0.00035; refractive index ([4]; x2 = 0.2269): 1.42965 ± 0.00035; refractive index ([4]; x2 = 0.3304): 1.42766 ± 0.00034; refractive index ([4]; x2 = 0.4164): 1.42549 ± 0.00034; refractive index ([4]; x2 = 0.5412): 1.42143 ± 0.00033; refractive index ([4]; x2 = 0.6012): 1.41886 ± 0.00032; refractive index ([4]; x2 = 0.7033): 1.41319 ± 0.00032; refractive index ([4]; x2 = 0.8067): 1.40447 ± 0.00032; refractive index ([4]; x2 = 0.8967): 1.39142 ± 0.00031

Question: Which viscosity ([3]; x2 = 0.0493) does the source give for `CCCCCCCCn1cc[n+](C)c1.O=S(=O)([N-]S(=O)(=O)C(F)(F)F)C(F)(F)F` + CCOC(C)=O here?
Answer: Its viscosity is 78.89 ± 1.1 mPa·s.

Question: What about the viscosity ([3]; x2 = 0.1112) of the same molecule?
Answer: Its viscosity is 65.93 ± 0.78 mPa·s.

Question: And the viscosity ([3]; x2 = 0.1546)?
Answer: The viscosity was 58.25 ± 0.66 mPa·s.

Question: And the viscosity ([3]; x2 = 0.2125)?
Answer: The viscosity was 48.82 ± 0.56 mPa·s.

Question: And the viscosity ([3]; x2 = 0.3102)?
Answer: The viscosity was 34.78 ± 0.4 mPa·s.

Question: What about the viscosity ([3]; x2 = 0.404) of the same molecule?
Answer: The viscosity was 24.15 ± 0.27 mPa·s.

Question: What about the viscosity ([3]; x2 = 0.4779) of the same molecule?
Answer: Its viscosity is 17.54 ± 0.2 mPa·s.

Question: And the viscosity ([3]; x2 = 0.5967)?
Answer: The viscosity was 9.795 ± 0.11 mPa·s.

Question: And the viscosity ([3]; x2 = 0.7035)?
Answer: Its viscosity is 5.384 ± 0.062 mPa·s.

Question: What about the viscosity ([3]; x2 = 0.8233) of the same molecule?
Answer: The viscosity was 2.284 ± 0.026 mPa·s.

Question: And the viscosity ([3]; x2 = 0.9016)?
Answer: Its viscosity is 1.233 ± 0.014 mPa·s.

Question: What about the mass density ([3]; x2 = 0.0493) of the same molecule?
Answer: The mass density was 1314.93 ± 1.6 kg/m3.

Question: And the mass density ([3]; x2 = 0.1112)?
Answer: The mass density was 1307.34 ± 1.5 kg/m3.

Question: What about the mass density ([3]; x2 = 0.1546) of the same molecule?
Answer: Its mass density is 1301.55 ± 1.4 kg/m3.

Question: What about the mass density ([3]; x2 = 0.2125) of the same molecule?
Answer: The mass density was 1293.1 ± 1.4 kg/m3.

Question: And the mass density ([3]; x2 = 0.3102)?
Answer: The mass density was 1276.6 ± 1.3 kg/m3.

Question: And the mass density ([3]; x2 = 0.404)?
Answer: The mass density was 1257.53 ± 1.2 kg/m3.

Question: And the mass density ([3]; x2 = 0.4779)?
Answer: The mass density was 1239.88 ± 1.1 kg/m3.

Question: And the mass density ([3]; x2 = 0.5967)?
Answer: The mass density was 1203.86 ± 0.97 kg/m3.

Question: What about the mass density ([3]; x2 = 0.7035) of the same molecule?
Answer: The mass density was 1160.22 ± 0.81 kg/m3.

Question: What about the mass density ([3]; x2 = 0.8233) of the same molecule?
Answer: Its mass density is 1089.62 ± 0.57 kg/m3.

Question: And the mass density ([3]; x2 = 0.9016)?
Answer: Its mass density is 1022.64 ± 0.35 kg/m3.

Question: And the refractive index ([4]; x2 = 0.0493)?
Answer: Its refractive index is 1.43216 ± 0.00037.

Question: And the refractive index ([4]; x2 = 0.1112)?
Answer: Its refractive index is 1.43115 ± 0.00036.

Question: And the refractive index ([4]; x2 = 0.1546)?
Answer: Its refractive index is 1.43042 ± 0.00036.

Question: What about the refractive index ([4]; x2 = 0.2125) of the same molecule?
Answer: The refractive index was 1.4293 ± 0.00035.

Question: What about the refractive index ([4]; x2 = 0.3102) of the same molecule?
Answer: Its refractive index is 1.42726 ± 0.00035.

Question: And the refractive index ([4]; x2 = 0.404)?
Answer: The refractive index was 1.42453 ± 0.00034.

Question: What about the refractive index ([4]; x2 = 0.4779) of the same molecule?
Answer: The refractive index was 1.42219 ± 0.00033.

Question: And the refractive index ([4]; x2 = 0.5967)?
Answer: The refractive index was 1.41721 ± 0.00033.

Question: And the refractive index ([4]; x2 = 0.7035)?
Answer: The refractive index was 1.41123 ± 0.00032.

Question: What about the refractive index ([4]; x2 = 0.8233) of the same molecule?
Answer: The refractive index was 1.40097 ± 0.00032.

Question: And the refractive index ([4]; x2 = 0.9016)?
Answer: Its refractive index is 1.391 ± 0.00032.

Question: For `CCO` [ethanol], which refractive index [1] is on record?
Answer: Its refractive index is 1.35928 ± 0.00031.

Question: And the viscosity [2]?
Answer: The viscosity was 1.054 ± 0.012 mPa·s.

Question: For `CCOC(C)=O` [ethyl acetate], which refractive index [1] is on record?
Answer: The refractive index was 1.36983 ± 0.00031.

Question: What about the viscosity [2] of the same molecule?
Answer: The viscosity was 0.4256 ± 0.0051 mPa·s.

Question: What about the mass density [2] of the same molecule?
Answer: The mass density was 894.4 ± 0.1 kg/m3.

Question: Which viscosity ([3]; x1 = 0.0941) does the source give for `CCOC(C)=O` [ethyl acetate] + CCO here?
Answer: Its viscosity is 0.855 ± 0.01 mPa·s.

Question: And the viscosity ([3]; x1 = 0.1919)?
Answer: Its viscosity is 0.692 ± 0.008 mPa·s.

Question: And the viscosity ([3]; x1 = 0.2836)?
Answer: The viscosity was 0.619 ± 0.007 mPa·s.

Question: And the viscosity ([3]; x1 = 0.4044)?
Answer: Its viscosity is 0.541 ± 0.006 mPa·s.

Question: And the viscosity ([3]; x1 = 0.5014)?
Answer: The viscosity was 0.505 ± 0.006 mPa·s.

Question: And the viscosity ([3]; x1 = 0.6085)?
Answer: The viscosity was 0.467 ± 0.006 mPa·s.

Question: What about the viscosity ([3]; x1 = 0.6949) of the same molecule?
Answer: Its viscosity is 0.444 ± 0.005 mPa·s.

Question: And the viscosity ([3]; x1 = 0.7929)?
Answer: Its viscosity is 0.436 ± 0.005 mPa·s.

Question: What about the viscosity ([3]; x1 = 0.8957) of the same molecule?
Answer: Its viscosity is 0.424 ± 0.005 mPa·s.

Question: What about the mass density ([3]; x1 = 0.0941) of the same molecule?
Answer: Its mass density is 800.65 ± 0.87 kg/m3.

Question: What about the mass density ([3]; x1 = 0.1919) of the same molecule?
Answer: The mass density was 815.09 ± 0.83 kg/m3.

Question: What about the mass density ([3]; x1 = 0.2836) of the same molecule?
Answer: The mass density was 827.27 ± 0.79 kg/m3.

Question: What about the mass density ([3]; x1 = 0.4044) of the same molecule?
Answer: The mass density was 841.69 ± 0.75 kg/m3.

Question: And the mass density ([3]; x1 = 0.5014)?
Answer: Its mass density is 852.05 ± 0.72 kg/m3.

Question: And the mass density ([3]; x1 = 0.6085)?
Answer: Its mass density is 862.53 ± 0.68 kg/m3.

Question: And the mass density ([3]; x1 = 0.6949)?
Answer: The mass density was 870.3 ± 0.66 kg/m3.

Question: What about the mass density ([3]; x1 = 0.7929) of the same molecule?
Answer: Its mass density is 878.51 ± 0.63 kg/m3.

Question: And the mass density ([3]; x1 = 0.8957)?
Answer: The mass density was 886.6 ± 0.61 kg/m3.

Question: What about the refractive index ([4]; x1 = 0.0941) of the same molecule?
Answer: The refractive index was 1.36064 ± 0.00031.

Question: And the refractive index ([4]; x1 = 0.1919)?
Answer: Its refractive index is 1.36193 ± 0.00031.

Question: What about the refractive index ([4]; x1 = 0.2836) of the same molecule?
Answer: Its refractive index is 1.36309 ± 0.00031.

Question: What about the refractive index ([4]; x1 = 0.4044) of the same molecule?
Answer: The refractive index was 1.36447 ± 0.00031.

Question: And the refractive index ([4]; x1 = 0.5014)?
Answer: Its refractive index is 1.36548 ± 0.00031.

Question: And the refractive index ([4]; x1 = 0.6085)?
Answer: The refractive index was 1.36649 ± 0.00031.

Question: What about the refractive index ([4]; x1 = 0.6949) of the same molecule?
Answer: Its refractive index is 1.36724 ± 0.00031.

Question: And the refractive index ([4]; x1 = 0.7929)?
Answer: Its refractive index is 1.36811 ± 0.00031.

Question: And the refractive index ([4]; x1 = 0.8957)?
Answer: Its refractive index is 1.36895 ± 0.00031.
